Residues, ends and D or L forms follow the SMILES beside them.
Columns and labels:
Test in all cases: microbe, parasite or virus in culture
[1] = tested on: A. baumannii; settings: A. baumannii ATCC 19636 type strain; MHB; mode of 6 replicates
Procedure: (§1) Antimicrobial activity of arenicin-3 and its analogs was tested against a panel of bacterial and yeast strains by in vitro broth microdilution (BMD) assay with minimum inhibitory concentration (MIC) determination. Strains were purchased from American Type Culture Collection (ATCC) or obtained from clinical collaborators (full strain profiles provided in Supplementary Data 3). All peptides were prepared in Ringer’s acetate solution, and subsequently diluted fresh in water for each independent assay.
(§2) Assays were performed in Mueller Hinton broth (MHB; BD, Cat. No. 211443) for bacteria, and yeast extract-peptone dextrose (YPD; Sigma-Aldrich, Y1500) for yeast. The concentrations of the peptides and comparator antibiotics/antifungals in the assay wells ranged from either 128 or 64 μg mL^−1, to 0.06 or 0.03 μg mL^−1 as a 12-point dose response plated as a 2-fold dilution series across the wells of the plate in duplicate for each independent biological replicate, using a final cell density of 5 × 10^5 CFU mL^−1 and 2.5 × 10^3 CFU mL^−1 for bacteria and yeast respectively. Final assay volumes were 100 μL per well with MICs determined visually following 18-20 h incubation at 37 °C for bacteria, 24 h incubation at 35 °C for Candida albicans, and 24 h incubation at 35 °C with resazurin addition (0.006%; Sigma-Aldrich, Cat # R7017) for a further 3 h for Cryptococcus neoformans, without shaking. Additional bacterial and yeast susceptibility assays were performed in Cation-Adjusted Mueller Hinton Broth (CAMHB; BD, Cat No. 212322) and Roswell Park Memorial Institute (RPMI) 1640 culture medium (Life Technologies Australia, Cat No. 21870092), respectively, as recommended by CLSI guidelines (M07 11th ed[36] and M27 4th ed[37]). […] Agarose MICs were determined in MHB with 1% agarose (Bioline molecular grade; Cat no: BIO-41025; high purity, high gel strength). All experiments were performed a minimum of six replicates (n ≥ 6).

[2] = tested on: P. aeruginosa; settings: P. aeruginosa ATCC 27853 control strain; MHB; mode of 6 replicates
Procedure: as §1, §2

[3] = tested on: S. aureus; settings: S. aureus ATCC 25923 MSSA; MHB; mode of 6 replicates
Procedure: as §1, §2

[4] = tested on: E. coli; settings: E. coli ATCC 25922 FDA control strain; MHB; mode of 6 independent biological replicates
Procedure: as §1, §2

[5] = tested on: K. pneumoniae; settings: K. pneumoniae ATCC 13883 type strain (polymyxin/colistin heteroresistant); MHB; mode of 6 replicates
Procedure: as §1, §2

SMILES	BMD MIC [1] [µg/mL]	BMD MIC [2] [µg/mL]	BMD MIC [3] [µg/mL]	BMD MIC [4] [µg/mL]	BMD MIC [5] [µg/mL]
CC(C)[C@@H]1NC(=O)[C@H](Cc2ccc(O)cc2)NC(=O)[C@H](Cc2c[nH]c3ccccc23)NC(=O)[C@@H](NC(=O)[C@@H](N)Cc2ccccc2)CSSC[C@@H](C(=O)N[C@@H](CC(N)=O)C(=O)O)NC(=O)[C@H](CCCNC(=N)N)NC(=O)[C@H](CCCNC(=N)N)NC(=O)[C@H](Cc2ccc(O)cc2)NC(=O)[C@@H]2CSSC[C@H](NC1=O)C(=O)N[C@@H](C)C(=O)N[C@@H](CCCNC(=N)N)C(=O)N[C@@H](CCCNC(=N)N)C(=O)N[C@@H](CC(N)=O)C(=O)NCC(=O)N[C@@H](C)C(=O)N[C@@H](CCCNC(=N)N)C(=O)N[C@@H](C(C)C)C(=O)N2 [AB0015] (HELM PEPTIDE1{F.C.W.Y.V.C.A.R.R.N.G.A.R.V.C.Y.R.R.C.N}$PEPTIDE1,PEPTIDE1,2:R3-19:R3|PEPTIDE1,PEPTIDE1,6:R3-15:R3$$$V2.0)	0.5	1	>64	0.5	2
CC(C)[C@@H]1NC(=O)[C@H](Cc2ccc(O)cc2)NC(=O)[C@H](Cc2c[nH]c3ccccc23)NC(=O)[C@@H](NC(=O)CN)CSSC[C@@H](C(=O)N[C@@H](CC(N)=O)C(=O)O)NC(=O)[C@H](CCCNC(=N)N)NC(=O)[C@H](CCCNC(=N)N)NC(=O)[C@H](Cc2ccc(O)cc2)NC(=O)[C@@H]2CSSC[C@H](NC1=O)C(=O)N[C@@H](C)C(=O)N[C@@H](CCCNC(=N)N)C(=O)N[C@@H](CCCNC(=N)N)C(=O)N[C@@H](CC(N)=O)C(=O)NCC(=O)N[C@@H](C)C(=O)N[C@@H](CCCNC(=N)N)C(=O)N[C@@H](C(C)C)C(=O)N2 [AB0016] (HELM PEPTIDE1{G.C.W.Y.V.C.A.R.R.N.G.A.R.V.C.Y.R.R.C.N}$PEPTIDE1,PEPTIDE1,2:R3-19:R3|PEPTIDE1,PEPTIDE1,6:R3-15:R3$$$V2.0)	1	1	>64	1	2
CC(C)[C@@H]1NC(=O)[C@H](Cc2ccc(O)cc2)NC(=O)[C@H](Cc2c[nH]c3ccccc23)NC(=O)[C@@H](NC(=O)[C@H](Cc2ccccc2)NC(=O)CN)CSSC[C@@H](C(N)=O)NC(=O)[C@H](CCCNC(=N)N)NC(=O)[C@H](CCCNC(=N)N)NC(=O)[C@H](Cc2ccc(O)cc2)NC(=O)[C@@H]2CSSC[C@H](NC1=O)C(=O)N[C@@H](C)C(=O)N[C@@H](CCCNC(=N)N)C(=O)N[C@@H](CCCNC(=N)N)C(=O)N[C@@H](CC(N)=O)C(=O)NCC(=O)N[C@@H](C)C(=O)N[C@@H](CCCNC(=N)N)C(=O)N[C@@H](C(C)C)C(=O)N2 [AB0017] (HELM PEPTIDE1{G.F.C.W.Y.V.C.A.R.R.N.G.A.R.V.C.Y.R.R.C.[am]}$PEPTIDE1,PEPTIDE1,3:R3-20:R3|PEPTIDE1,PEPTIDE1,7:R3-16:R3$$$V2.0)	1	0.25	64	0.5	0.125

— publication PMC7311426, “An amphipathic peptide with antibiotic activity against multidrug-resistant Gram-negative bacteria” (Nature Communications, 2020)
